Experimental data: patent US8415469B2, “Compounds and methods for kinase modulation, and indications therefor” (Plexxikon Inc., priority 2005, dated 2013)

Key:
Type in all cases: biochemical
[1] = molecular target: T1, B-Raf (Homo sapiens, UniProt P15056); test: AlphaScreen kinase assay, B-Raf; conditions: read-out: IC50, activity toward kinase B-Raf
T1 construct: purchased Upstate Biotechnology

[2] = molecular target: T2, Ret (Homo sapiens, UniProt P07949); test: AlphaScreen kinase assay, Ret; conditions: read-out: IC50, activity toward kinase Ret
T2 construct: P1378.pET-SF BI-PTP RET H661-R1012 HIS; made in house
T2 sequence (P07949 with tags, fused parts or gaps): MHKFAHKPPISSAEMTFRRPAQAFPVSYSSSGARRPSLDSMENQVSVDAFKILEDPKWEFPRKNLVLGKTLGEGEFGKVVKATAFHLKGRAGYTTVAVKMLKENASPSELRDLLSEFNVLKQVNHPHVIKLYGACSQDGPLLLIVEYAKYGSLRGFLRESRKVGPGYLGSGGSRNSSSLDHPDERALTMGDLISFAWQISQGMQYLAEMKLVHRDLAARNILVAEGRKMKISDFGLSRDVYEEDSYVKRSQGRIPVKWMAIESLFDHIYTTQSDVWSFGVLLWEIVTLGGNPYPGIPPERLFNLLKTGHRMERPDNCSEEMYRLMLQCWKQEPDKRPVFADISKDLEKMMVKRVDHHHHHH

[3] = molecular target: T3, B-Raf V600E (Homo sapiens, UniProt P15056, V600E); test: AlphaScreen kinase assay, B-Raf V600E; conditions: read-out: IC50, activity toward kinase B-Raf V600E
T3 construct: P4254. pFastBacBD-CDC37 BRAF D437-K722-X, V600E; His6 with pFastBac HT leader (TEV site) (N); made in house; host or cells: Sf9 (baculovirus; chaperone CDC37 co-expressed)
T3 sequence (P15056 with tags, fused parts or gaps V600E): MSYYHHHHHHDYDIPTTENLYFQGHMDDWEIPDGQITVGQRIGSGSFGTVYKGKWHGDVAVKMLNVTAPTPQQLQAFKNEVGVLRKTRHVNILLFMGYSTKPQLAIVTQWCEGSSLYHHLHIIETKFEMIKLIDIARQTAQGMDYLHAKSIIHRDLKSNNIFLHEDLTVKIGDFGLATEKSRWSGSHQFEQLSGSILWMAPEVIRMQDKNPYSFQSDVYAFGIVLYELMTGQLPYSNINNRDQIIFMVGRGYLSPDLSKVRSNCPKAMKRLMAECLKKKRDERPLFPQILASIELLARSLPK

[4] = molecular target: T4, Jnk1 (Homo sapiens, UniProt P45983); test: AlphaScreen kinase assay, Jnk1; conditions: read-out: IC50, activity toward kinase Jnk1
T4 construct: purchased Upstate Biotechnology
T4 sequence (P45983 whole entry): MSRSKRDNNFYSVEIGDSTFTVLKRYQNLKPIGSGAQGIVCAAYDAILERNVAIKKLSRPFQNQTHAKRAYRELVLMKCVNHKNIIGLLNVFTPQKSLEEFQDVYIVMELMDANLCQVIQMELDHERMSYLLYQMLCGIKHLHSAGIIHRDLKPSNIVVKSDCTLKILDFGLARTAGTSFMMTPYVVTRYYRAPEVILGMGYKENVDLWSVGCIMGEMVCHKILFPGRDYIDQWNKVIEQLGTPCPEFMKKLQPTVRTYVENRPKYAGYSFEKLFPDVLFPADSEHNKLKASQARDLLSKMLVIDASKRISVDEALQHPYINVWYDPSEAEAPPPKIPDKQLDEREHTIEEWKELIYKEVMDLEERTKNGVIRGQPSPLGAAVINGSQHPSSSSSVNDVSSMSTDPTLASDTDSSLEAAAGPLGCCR

[5] = molecular target: T5, FGFR1 (Homo sapiens, UniProt P11362, C488A/C584S); test: AlphaScreen kinase assay, FGFR1; conditions: read-out: IC50, activity toward kinase FGFR
T5 construct: P1351.pET N6 BI-PTP FGFR A458-E765-X C488A, C584S; made in house; host or cells: E. coli (PTP1B co-expressed)
T5 sequence (P11362 458-765 C488A/C584S): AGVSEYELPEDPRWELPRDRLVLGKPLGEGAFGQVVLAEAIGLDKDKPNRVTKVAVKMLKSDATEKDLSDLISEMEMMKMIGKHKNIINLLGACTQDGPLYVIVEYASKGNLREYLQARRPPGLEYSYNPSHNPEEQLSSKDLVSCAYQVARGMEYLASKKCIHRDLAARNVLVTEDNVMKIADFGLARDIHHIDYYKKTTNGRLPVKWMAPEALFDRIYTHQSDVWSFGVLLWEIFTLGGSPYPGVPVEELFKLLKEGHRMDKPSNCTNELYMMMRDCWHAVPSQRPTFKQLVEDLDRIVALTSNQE

[6] = molecular target: T6, c-Raf-1 (Homo sapiens, UniProt P04049); test: AlphaScreen kinase assay, c-Raf-1; conditions: read-out: IC50, activity toward kinase c-Raf-1
T6 construct: purchased Upstate Biotechnology
T6 sequence (P04049 whole entry): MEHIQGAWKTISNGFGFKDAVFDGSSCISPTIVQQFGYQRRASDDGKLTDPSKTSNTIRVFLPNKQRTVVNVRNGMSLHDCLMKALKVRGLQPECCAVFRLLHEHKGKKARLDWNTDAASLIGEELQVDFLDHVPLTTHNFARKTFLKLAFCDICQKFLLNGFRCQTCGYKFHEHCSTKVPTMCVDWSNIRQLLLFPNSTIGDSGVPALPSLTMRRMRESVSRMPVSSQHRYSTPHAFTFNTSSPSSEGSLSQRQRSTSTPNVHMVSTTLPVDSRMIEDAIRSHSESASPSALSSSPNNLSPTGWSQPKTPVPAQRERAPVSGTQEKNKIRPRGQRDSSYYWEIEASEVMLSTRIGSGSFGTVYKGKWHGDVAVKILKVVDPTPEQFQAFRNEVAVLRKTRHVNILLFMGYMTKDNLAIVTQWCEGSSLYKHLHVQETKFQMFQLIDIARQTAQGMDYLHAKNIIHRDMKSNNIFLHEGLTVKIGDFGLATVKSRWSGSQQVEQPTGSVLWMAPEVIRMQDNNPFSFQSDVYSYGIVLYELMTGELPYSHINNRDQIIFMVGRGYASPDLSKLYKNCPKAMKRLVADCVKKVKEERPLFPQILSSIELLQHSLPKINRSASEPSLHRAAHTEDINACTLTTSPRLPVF

[7] = molecular target: T7, Kit (Homo sapiens, UniProt P10721); test: AlphaScreen kinase assay, Kit; conditions: read-out: IC50, activity toward kinase Kit
T7 construct: P1332.N6 BI PTP KIT M552-K948-X COD; His6 (N); made in house; host or cells: E. coli (PTP1B co-expressed)
T7 sequence (P10721 with tags, fused parts or gaps): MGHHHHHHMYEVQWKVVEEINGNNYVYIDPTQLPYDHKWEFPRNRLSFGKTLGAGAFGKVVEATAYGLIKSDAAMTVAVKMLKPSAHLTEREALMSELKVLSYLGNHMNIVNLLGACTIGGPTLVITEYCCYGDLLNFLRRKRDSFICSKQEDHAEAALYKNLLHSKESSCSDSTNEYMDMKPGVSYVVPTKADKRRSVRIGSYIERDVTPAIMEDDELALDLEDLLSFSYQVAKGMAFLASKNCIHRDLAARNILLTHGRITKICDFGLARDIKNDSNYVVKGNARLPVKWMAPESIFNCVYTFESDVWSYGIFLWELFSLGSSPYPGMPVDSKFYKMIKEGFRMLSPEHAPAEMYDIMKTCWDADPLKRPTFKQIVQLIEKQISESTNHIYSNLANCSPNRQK

[8] = molecular target: T8, Fms (Homo sapiens, UniProt P07333); test: AlphaScreen kinase assay, Fms; conditions: read-out: IC50, activity toward kinase Fms
T8 construct: purchased Upstate Biotechnology
T8 sequence (P07333 20-972): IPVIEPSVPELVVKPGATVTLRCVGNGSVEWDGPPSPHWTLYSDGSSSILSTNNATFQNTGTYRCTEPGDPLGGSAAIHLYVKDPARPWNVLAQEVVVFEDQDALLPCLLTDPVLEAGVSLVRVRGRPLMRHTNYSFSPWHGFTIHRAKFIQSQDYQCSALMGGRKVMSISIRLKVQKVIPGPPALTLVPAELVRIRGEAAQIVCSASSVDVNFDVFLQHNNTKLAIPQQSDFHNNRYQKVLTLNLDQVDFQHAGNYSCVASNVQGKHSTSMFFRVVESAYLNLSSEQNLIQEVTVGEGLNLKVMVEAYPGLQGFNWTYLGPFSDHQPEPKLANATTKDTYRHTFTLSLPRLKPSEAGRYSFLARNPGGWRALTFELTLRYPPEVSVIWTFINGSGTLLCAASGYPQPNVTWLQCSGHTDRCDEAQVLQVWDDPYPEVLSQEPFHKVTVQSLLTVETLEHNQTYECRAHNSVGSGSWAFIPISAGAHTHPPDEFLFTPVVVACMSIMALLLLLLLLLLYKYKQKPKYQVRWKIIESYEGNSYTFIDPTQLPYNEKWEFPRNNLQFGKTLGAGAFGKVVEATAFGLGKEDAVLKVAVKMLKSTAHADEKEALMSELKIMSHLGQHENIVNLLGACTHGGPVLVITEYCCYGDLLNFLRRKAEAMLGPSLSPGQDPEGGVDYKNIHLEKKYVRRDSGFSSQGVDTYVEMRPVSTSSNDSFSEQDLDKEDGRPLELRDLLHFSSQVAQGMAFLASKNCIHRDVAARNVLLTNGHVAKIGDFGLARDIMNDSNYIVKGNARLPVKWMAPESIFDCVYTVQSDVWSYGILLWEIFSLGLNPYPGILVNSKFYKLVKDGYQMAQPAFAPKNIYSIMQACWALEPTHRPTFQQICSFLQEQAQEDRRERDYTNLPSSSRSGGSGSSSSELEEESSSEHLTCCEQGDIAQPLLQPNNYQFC

[9] = molecular target: T9, Flt1 (Homo sapiens, UniProt P17948); test: AlphaScreen kinase assay, Flt1; conditions: read-out: IC50, activity toward kinase Flt1
T9 construct: P1826.pETN6 BI-PTP FLT1 M799-D1165-X WT; His6 (N); made in house; host or cells: E. coli (PTP1B co-expressed)
T9 sequence (P17948 with tags, fused parts or gaps): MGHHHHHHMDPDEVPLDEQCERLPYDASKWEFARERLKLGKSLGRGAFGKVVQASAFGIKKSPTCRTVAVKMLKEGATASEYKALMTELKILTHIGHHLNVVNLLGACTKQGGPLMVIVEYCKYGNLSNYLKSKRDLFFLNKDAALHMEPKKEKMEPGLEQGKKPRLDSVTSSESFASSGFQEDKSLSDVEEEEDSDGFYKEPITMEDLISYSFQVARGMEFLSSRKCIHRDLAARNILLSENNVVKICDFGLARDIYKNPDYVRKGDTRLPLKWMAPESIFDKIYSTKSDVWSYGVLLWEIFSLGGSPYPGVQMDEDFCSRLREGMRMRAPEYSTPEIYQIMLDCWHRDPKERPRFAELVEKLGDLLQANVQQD

[10] = molecular target: T10, Jnk3 (Homo sapiens, UniProt P53779); test: AlphaScreen kinase assay, Jnk3; conditions: read-out: IC50, activity toward kinase Jnk3
T10 construct: purchased Upstate Biotechnology
T10 sequence (P53779 whole entry): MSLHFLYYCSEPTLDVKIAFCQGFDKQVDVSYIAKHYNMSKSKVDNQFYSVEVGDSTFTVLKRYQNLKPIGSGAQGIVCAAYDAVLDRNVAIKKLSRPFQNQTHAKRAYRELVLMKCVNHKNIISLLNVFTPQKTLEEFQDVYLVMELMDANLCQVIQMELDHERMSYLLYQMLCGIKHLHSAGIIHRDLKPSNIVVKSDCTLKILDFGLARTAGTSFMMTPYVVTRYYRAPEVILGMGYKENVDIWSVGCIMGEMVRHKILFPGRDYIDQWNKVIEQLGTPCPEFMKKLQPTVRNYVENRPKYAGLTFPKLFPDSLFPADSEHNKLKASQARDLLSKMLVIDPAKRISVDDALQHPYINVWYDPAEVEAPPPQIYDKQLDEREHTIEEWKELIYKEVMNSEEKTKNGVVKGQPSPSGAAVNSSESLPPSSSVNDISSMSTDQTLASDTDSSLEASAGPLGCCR

Measured: IC50

T1 sequence (P15056 whole entry): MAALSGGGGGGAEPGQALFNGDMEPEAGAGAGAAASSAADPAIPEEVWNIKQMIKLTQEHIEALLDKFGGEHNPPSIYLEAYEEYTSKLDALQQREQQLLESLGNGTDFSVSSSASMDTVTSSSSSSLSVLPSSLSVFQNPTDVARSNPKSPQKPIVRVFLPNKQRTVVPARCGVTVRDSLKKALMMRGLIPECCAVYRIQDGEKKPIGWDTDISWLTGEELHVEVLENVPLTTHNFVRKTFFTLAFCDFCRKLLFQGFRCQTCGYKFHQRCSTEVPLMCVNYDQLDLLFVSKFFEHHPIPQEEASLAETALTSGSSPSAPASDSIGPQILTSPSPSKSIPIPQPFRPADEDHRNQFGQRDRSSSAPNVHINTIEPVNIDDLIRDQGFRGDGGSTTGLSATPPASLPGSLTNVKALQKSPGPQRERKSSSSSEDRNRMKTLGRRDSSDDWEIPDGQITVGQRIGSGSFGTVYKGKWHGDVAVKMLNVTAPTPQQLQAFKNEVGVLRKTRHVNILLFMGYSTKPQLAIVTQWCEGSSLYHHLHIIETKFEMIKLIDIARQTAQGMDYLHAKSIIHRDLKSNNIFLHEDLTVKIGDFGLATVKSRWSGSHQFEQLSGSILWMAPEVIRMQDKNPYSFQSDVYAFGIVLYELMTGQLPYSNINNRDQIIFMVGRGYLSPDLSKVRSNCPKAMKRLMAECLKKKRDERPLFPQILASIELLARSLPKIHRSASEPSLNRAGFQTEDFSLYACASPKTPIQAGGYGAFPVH

CS(=O)(=O)Nc1cccc(-c2cnc3[nH]cc(C(=O)c4c(Cl)ccc(NS(C)(=O)=O)c4F)c3c2)c1 [Compound P-0745, N-{4-Chloro-2-fluoro-3-[5-(3-methanesulfonylamino-phenyl)-1H-pyrrolo[2,3-b]pyridine-3-carbonyl]-phenyl}-methanesulfonamide]
≤ 10 µM: [1] | [2] | [3] | [4] | [5] | [6]

CCCS(=O)(=O)Nc1ccc(F)c(C(=O)c2c[nH]c3ncc(N4CCC(C)CC4)cc23)c1F [Compound P-0860, propane-1-sulfonic acid {2,4-difluoro-3-[5-(4-methyl-piperidin-1-yl)-1H-pyrrolo[2,3-b]pyridine-3-carbonyl]-phenyl}-amide]
≤ 10 µM: [7] | [1] | [3] | [4] | [5] | [6]

CCCS(=O)(=O)Nc1ccc(F)c(C(=O)c2c[nH]c3ncc(-c4ccc(F)cc4)cc23)c1F [Compound P-1260, Propane-1-sulfonic acid {2,4-difluoro-3-[5-(4-fluoro-phenyl)-1H-pyrrolo[2.3 b]pyridine-3-carbonyl]-phenyl}-amide]
not listed: [2] | [10]
≤ 10 µM: all other assays above

CN(C)c1ccc(Nc2ccc3cc[nH]c3n2)cc1 [Compound P-1356, N,N-Dimethyl-N′-(1H -pyrrolo[2,3-b]pyridin-6-yl)-benzene-1,4-diamine]
≤ 10 µM: [10] | [4]

O=C(c1c[nH]c2ncc(-c3cccnc3)cc12)c1cccc2c1ccn2COCc1ccccc1 [Compound P-1523, (1-Benzyloxymethyl-1H-indol-4-yl)-(5-pyridin-3-yl-1H-pyrrolo[2,3-b]pyridin-3-yl)-methanone]
≤ 10 µM: [4] | [9]

CCCS(=O)(=O)Nc1ccc(F)c(C(=O)c2c[nH]c3ncc(-c4cccc(C(N)=O)c4)cc23)c1F [Compound P-1549, 3-{3-[2,6-Difluoro-3-(propane-1-sulfonylamino)-benzoyl]-1H-pyrrolo[2,3-b]pyridin-5-yl}-benzamide]
not listed: [2] | [6] | [10]
≤ 10 µM: all other assays above

O=C(NCc1ccccc1)Nc1cccc(C(=O)c2c[nH]c3ncc(Br)cc23)c1 [Compound P-1553, 1-Benzyl-3-[3-(5-bromo-1H-pyrrolo[2,3-b]pyridine-3-carbonyl)-phenyl]-urea]
≤ 10 µM: [7] | [1] | [8] | [3] | [4] | [9]

O=C(c1ccc(Cl)cc1Cl)c1c[nH]c2ncc(-c3cccnc3)cc12 [Compound P-1556]
≤ 10 µM: [1] | [8] | [3] | [4] | [9] | [5]

CCCCNC(=O)Nc1cccc(C(=O)c2c[nH]c3ncc(Br)cc23)c1 [Compound P-1596, 1-[3-(5-bromo-1H-pyrrolo[2,3-b]pyridine-3-carbonyl)-phenyl]-3-butyl-urea]
≤ 10 µM: [1] | [8] | [3] | [4] | [9]

CCCCN(CCCC)C(=O)n1ccc2c(C(=O)c3c[nH]c4ncc(-c5cccnc5)cc34)cccc21 [Compound P-1636, 4-(5-pyridin-3-yl-1H-pyrrolo[2,3-b]pyridine-3-carbonyl)-indole-1-carboxylic acid dibutylamide]
≤ 10 µM: [1] | [8] | [10] | [3] | [4]

COc1ccc(NC(=O)Nc2cccc(C(=O)c3c[nH]c4ncccc34)c2)cc1OC [Compound P-1708, 1-(3,4-Dimethoxy-phenyl)-3-[3-(1H-pyrrolo[2,3-b]pyridine-3-carbonyl)-phenyl]-urea]
≤ 10 µM: [7] | [1] | [8] | [3] | [4]

O=C(Nc1cccc(C(=O)c2c[nH]c3ncc(Cl)cc23)c1)Nc1ccon1 [Compound P-1775, 1-[3-(5-Chloro-1H-pyrrolo[2,3-b]pyridine-3-carbonyl)-phenyl]-3-isoxazol-3-yl-urea]
≤ 10 µM: [1] | [8] | [10] | [3] | [4]

CC(C)c1ccc(S(=O)(=O)Nc2ccc(F)c(C(=O)c3c[nH]c4ncc(Cl)cc34)c2F)cc1 [Compound P-1839, N-[3-(5-chloro-1H-pyrrolo[2,3-b]pyridine-3-carbonyl)-2,4-difluoro-phenyl]-4-isopropyl-benzenesulfonamide]
≤ 10 µM: [7] | [1] | [8] | [3] | [4] | [6]

CCCS(=O)(=O)Nc1ccc(F)c(C(=O)c2c[nH]c3ncc(-c4cccc(N5CCOCC5)c4)cc23)c1F [Compound P-1873, Propane-1-sulfonic acid {2,4-difluoro-3-[5-(3-morpholin-4-yl-phenyl)-1H-pyrrolo[2,3-b]pyridine-3-carbonyl]-phenyl}-amide]
≤ 10 µM: [7] | [1] | [8] | [3] | [4] | [6]

CCCS(=O)(=O)Nc1ccc(F)c(C(=O)c2c[nH]c3ncc(-c4cccc(CN5CCOCC5)c4)cc23)c1F [Compound P-1878, Propane-1-sulfonic acid {2,4-difluoro-3-[5-(3-morpholin-4-ylmethyl-phenyl)-1H-pyrrolo[2,3-b]pyridine-3-carbonyl]-phenyl}-amide]
≤ 10 µM: [7] | [1] | [8] | [3] | [4] | [6]

CCCS(=O)(=O)Nc1ccc(F)c(C(=O)c2c[nH]c3ncc(-c4ccc(OC)nc4)cc23)c1F [Compound P-1879, Propane-1-sulfonic acid {2,4-difluoro-3-[5-(6-methoxy-pyridin-3-yl)-1H-pyrrolo[2,3-b]pyridine-3-carbonyl]-phenyl}-amide]
≤ 10 µM: [7] | [1] | [8] | [3] | [4] | [6]
